# Results reported in US20230146455A1, “TREATMENT OF INFLAMMATORY DISEASES WITH PEPTIDES AND PHARMACEUTICAL COMPOSITIONS” (Yuyu Pharma, Inc., priority 2020, published 2023).
# “And” between values parts separate entries of the source, which are not always exact repeats. Equal values may be shown once. Where a SMILES comes first, the peptide text is derived from it. [ ]: non-standard residue; d: D form. Hyp = O=C(O)[C@@H]1C[C@@H](O)CN1
# Legend:
# CCL4/MIP-1 beta = assay: Example 9 Luminex, LPS hPBMCs: CCL4/MIP-1 beta; assay type: cell-based, human; conditions: PBMC + LPS(5 ug/ml); for MFI (Bead name: CCL4/MIP-1 beta): dilution 10
# Method: (§1) Treatment Human PBMCs were pretreated with YY-101, YDE-011 and YDE-043 or reference compound; Xiidra® at various concentration (ranging from 1 nM to 100 uM) for 2 h before stimulation. An equal volume of 0.5% DMSO was used as a vehicle control. Then, the cells were treated with LPS at 5 ug/ml. The supernatants from treated cells were harvested at 24 h and placed in a 96 well for Luminex cytokine & chemokine profiling using a Luminex 200 multiplex assay (Luminex; R&D system, USA).
# (§2) The main study arm with triplicate wells per group in a 24-well plate: • 1. Blank • 2. PBMC: 0.5% DMSO • 3. PBMC+LPS (5 ug/ml) • 4. PBMC+YY-101 100 uM • 5. PBMC+YY-101 10 uM • 6. PBMC+YY-101 1 uM • 7. PBMC+YY-101 0.1 uM • 8. PBMC+YY-101 0.01 uM • 9. PBMC+LPS (5 ug/ml)+Xiidra®100 uM • 10. PBMC+LPS (5 ug/ml)+Xiidra® 10 uM • 11. PBMC+LPS (5 ug/ml)+Xiidra® 1 uM • 12. PBMC+LPS (5 ug/ml)+Xiidra®0.1 uM • 13. PBMC+LPS (5 ug/ml)+Xiidra®0.01 uM • 14. PBMC+LPS (5 ug/ml)+Xiidra®0.001 uM • 15. PBMC+LPS (5 ug/ml)+YY-101 100 uM • 16. PBMC+LPS (5 ug/ml)+YY-101 10 uM • 17. PBMC+LPS (5 ug/ml)+YY-101 1 uM • 18. PBMC+LPS (5 ug/ml)+YY-101 0.1 uM • 19. PBMC+LPS (5 ug/ml)+YY-101 0.01 uM • 20. PBMC+LPS (5 ug/ml)+YY-101 0.001 uM • 21. PBMC+LPS (5 ug/ml)+YDE-011 100 uM • 22. PBMC+LPS (5 ug/ml)+YDE-011 10 uM • 23. PBMC+LPS (5 ug/ml)+YDE-011 1 uM • 24. PBMC+LPS (5 ug/ml)+YDE-011 0.1 uM • 25. PBMC+LPS (5 ug/ml)+YDE-011 0.01 uM • 26. PBMC+LPS (5 ug/ml)+YDE-011 0.001 uM • 27. PBMC+LPS (5 ug/ml)+YDE-043 100 uM • 28. PBMC+LPS (5 ug/ml)+YDE-043 10 uM • 29. PBMC+LPS (5 ug/ml)+YDE-043 1 uM • 30. PBMC+LPS (5 ug/ml)+YDE-043 0.1 uM • 31. PBMC+LPS (5 ug/ml)+YDE-043 0.01 uM • 32. PBMC+LPS (5 ug/ml)+YDE-043 0.001 uM
# (§3) Multiplex assay was used to measure 30 cytokines and chemokines. The 1:2, 1:10 and 1:200 diluted cell supernatant and serial dilution of the standard were dispensed into a 96 well plate at 50 ul/well. Then, the pre-mixed cocktail of antibody-coated magnetic beads was dispensed at 50 ul/well and incubated at room temperature for 2 h in a horizontal orbital microplate shaker at 800±500 rpm. The beads were washed using a magnetic device to prevent loss. The biotin-antibody was dispensed in 50 ul of each well and incubated at room temperature for 1 h in a shaker at 800±500 rpm. After washing, streptavidin-PE was added at 50 ul/well and incubated at room temperature for 30 min in a shaker under the same conditions. Finally, after washing, wash buffer (100 ul/well) was added to the plate and incubated in a shaker for 2 min. The Luminex™ 200 setting were set according to the manufacturer's protocol. The data was calculated with a standard five-parameter logistic nonlinear regression analysis of the data (xPonent software 4.2, USA). The levels of cytokine/chemokine are normalized to the live cell counts (1×10^5 cells/mL) and presented as concentrations per mL (pg/mL or ng/mL).
# IL-1 alpha = assay: Example 9 Luminex, LPS hPBMCs: IL-1 alpha; assay type: cell-based, human; conditions: IL-1 alpha, replicates and Mean
# Method: as §1, §2, §3
# [1] = test article 0.001 uM, single replicates
# [2] = test article 0.01 uM, single replicates
# [3] = test article 0.1 uM, single replicates
# [4] = test article 1 uM, single replicates
# [5] = test article 10 uM, single replicates
# [6] = test article 100 uM, single replicates
# [7] = PBMC + LPS(5 ug/ml) + YDE011 0.001 uM
# [8] = PBMC + LPS(5 ug/ml) + YDE011 0.001 uM, mean
# [9] = PBMC + LPS(5 ug/ml) + YDE011 0.01 uM
# [10] = PBMC + LPS(5 ug/ml) + YDE011 0.01 uM, mean
# [11] = PBMC + LPS(5 ug/ml) + YDE011 0.1 uM
# [12] = PBMC + LPS(5 ug/ml) + YDE011 0.1 uM, mean
# [13] = PBMC + LPS(5 ug/ml) + YDE011 1 uM
# [14] = PBMC + LPS(5 ug/ml) + YDE011 1 uM, mean
# [15] = PBMC + LPS(5 ug/ml) + YDE011 10 uM
# [16] = PBMC + LPS(5 ug/ml) + YDE011 10 uM, mean
# [17] = PBMC + LPS(5 ug/ml) + YDE011 100 uM
# [18] = PBMC + LPS(5 ug/ml) + YDE011 100 uM, mean
compound,measurement,setting,value
CC(C)C[C@H](NC(=O)CNC(=O)[C@H](CC(C)C)NC(=O)[C@H](CCC(N)=O)NC(=O)CNC(=O)[C@@H]1C[C@@H](O)CN1)C(=O)N[C@@H](C)C(=O)NCC(=O)N1CCC[C@H]1C(=O)N[C@@H](CCCCN)C(=O)O [YDE-011] (H-[Hyp]GQLGLAGPK-OH),Concentration (CCL4/MIP-1 beta),"CCL4/MIP-1 beta; test article 0.001 uM, Mean",7251.7 pg/mL
same,conc/live cell (CCL4/MIP-1 beta),"CCL4/MIP-1 beta; test article 0.001 uM, Mean",1370.9 pg/10^5
same,MFI (Bead name: CCL4/MIP-1 beta),"CCL4/MIP-1 beta; test article 0.001 uM, Mean",157.3
same,MFI (Bead name: CCL4/MIP-1 beta),CCL4/MIP-1 beta; [1],158.0 (2×) and 156.0
same,Concentration (CCL4/MIP-1 beta),CCL4/MIP-1 beta; [1],7267.3 pg/ml (2×) and 7220.3 pg/ml
same,conc/live cell (CCL4/MIP-1 beta),CCL4/MIP-1 beta; [1],1615.0 pg/10^5 and 1244.9 pg/10^5 and 1253.0 pg/10^5
same,Concentration (CCL4/MIP-1 beta),"CCL4/MIP-1 beta; test article 0.01 uM, Mean",7395.1 pg/mL
same,conc/live cell (CCL4/MIP-1 beta),"CCL4/MIP-1 beta; test article 0.01 uM, Mean",1270.9 pg/10^5
same,MFI (Bead name: CCL4/MIP-1 beta),"CCL4/MIP-1 beta; test article 0.01 uM, Mean",163.5
same,MFI (Bead name: CCL4/MIP-1 beta),CCL4/MIP-1 beta; [2],164.0 and 159.0 and 167.5
same,Concentration (CCL4/MIP-1 beta),CCL4/MIP-1 beta; [2],7407.0 pg/mL and 7290.8 pg/mL and 7487.6 pg/mL
same,conc/live cell (CCL4/MIP-1 beta),CCL4/MIP-1 beta; [2],1194.7 pg/10^5 and 1429.6 pg/10^5 and 1188.5 pg/10^5
same,Concentration (CCL4/MIP-1 beta),"CCL4/MIP-1 beta; test article 0.1 uM, Mean",7029.3 pg/mL
same,conc/live cell (CCL4/MIP-1 beta),"CCL4/MIP-1 beta; test article 0.1 uM, Mean",1234.5 pg/10^5
same,MFI (Bead name: CCL4/MIP-1 beta),"CCL4/MIP-1 beta; test article 0.1 uM, Mean",148.0
same,MFI (Bead name: CCL4/MIP-1 beta),CCL4/MIP-1 beta; [3],152.0 and 151.0 and 141.0
same,Concentration (CCL4/MIP-1 beta),CCL4/MIP-1 beta; [3],7125.7 pg/mL and 7101.9 pg/mL and 6860.2 pg/mL
same,conc/live cell (CCL4/MIP-1 beta),CCL4/MIP-1 beta; [3],1079.6 pg/10^5 and 1420.4 pg/10^5 and 1203.6 pg/10^5
same,Concentration (CCL4/MIP-1 beta),"CCL4/MIP-1 beta; test article 1 uM, Mean",7165.0 pg/mL
same,conc/live cell (CCL4/MIP-1 beta),"CCL4/MIP-1 beta; test article 1 uM, Mean",1429.9 pg/10^5
same,MFI (Bead name: CCL4/MIP-1 beta),"CCL4/MIP-1 beta; test article 1 uM, Mean",153.7
same,MFI (Bead name: CCL4/MIP-1 beta),CCL4/MIP-1 beta; [4],151.0 and 152.0 and 158.0
same,Concentration (CCL4/MIP-1 beta),CCL4/MIP-1 beta; [4],7101.9 pg/mL and 7125.7 pg/mL and 7267.3 pg/mL
same,conc/live cell (CCL4/MIP-1 beta),CCL4/MIP-1 beta; [4],1291.2 pg/10^5 and 1484.5 pg/10^5 and 1514.0 pg/10^5
same,Concentration (CCL4/MIP-1 beta),"CCL4/MIP-1 beta; test article 10 uM, Mean",7321.1 pg/mL
same,conc/live cell (CCL4/MIP-1 beta),"CCL4/MIP-1 beta; test article 10 uM, Mean",1392.8 pg/10^5
same,MFI (Bead name: CCL4/MIP-1 beta),"CCL4/MIP-1 beta; test article 10 uM, Mean",160.3
same,MFI (Bead name: CCL4/MIP-1 beta),CCL4/MIP-1 beta; [5],166.0 and 153.5 and 161.5
same,Concentration (CCL4/MIP-1 beta),CCL4/MIP-1 beta; [5],7453.1 pg/mL and 7161.3 pg/mL and 7349.0 pg/mL
same,conc/live cell (CCL4/MIP-1 beta),CCL4/MIP-1 beta; [5],1380.2 pg/10^5 and 1234.7 pg/10^5 and 1563.6 pg/10^5
same,Concentration (CCL4/MIP-1 beta),"CCL4/MIP-1 beta; test article 100 uM, Mean",6290.1 pg/mL
same,conc/live cell (CCL4/MIP-1 beta),"CCL4/MIP-1 beta; test article 100 uM, Mean",1036.8 pg/10^5
same,MFI (Bead name: CCL4/MIP-1 beta),"CCL4/MIP-1 beta; test article 100 uM, Mean",118.5
same,MFI (Bead name: CCL4/MIP-1 beta),CCL4/MIP-1 beta; [6],119.0 and 121.5 and 115.0
same,Concentration (CCL4/MIP-1 beta),CCL4/MIP-1 beta; [6],6303.5 pg/mL and 6368.7 pg/mL and 6197.9 pg/mL
same,conc/live cell (CCL4/MIP-1 beta),CCL4/MIP-1 beta; [6],1033.4 pg/10^5 and 1044.1 pg/10^5 and 1033.0 pg/10^5
same,Concentration,IL-1 alpha; [7],336.1 pg/mL and 335.4 pg/mL and 361.1 pg/mL
same,conc/live cell,IL-1 alpha; [7],74.7 pg/10^5 and 57.8 pg/10^5 and 62.3 pg/10^5
same,Concentration,IL-1 alpha; [8],344.2 pg/mL
same,conc/live cell,IL-1 alpha; [8],64.9 pg/10^5
same,Concentration,IL-1 alpha; [9],359.2 pg/mL and 381.8 pg/mL and 342.8 pg/mL
same,conc/live cell,IL-1 alpha; [9],57.9 pg/10^5 and 74.9 pg/10^5 and 54.4 pg/10^5
same,Concentration,IL-1 alpha; [10],361.3 pg/mL
same,conc/live cell,IL-1 alpha; [10],62.4 pg/10^5
same,Concentration,IL-1 alpha; [11],332.4 pg/mL and 312.9 pg/mL and 347.3 pg/mL
same,conc/live cell,IL-1 alpha; [11],50.4 pg/10^5 and 62.6 pg/10^5 and 60.9 pg/10^5
same,Concentration,IL-1 alpha; [12],330.9 pg/mL
same,conc/live cell,IL-1 alpha; [12],58.0 pg/10^5
same,Concentration,IL-1 alpha; [13],349.2 pg/mL and 321.1 pg/mL and 345.8 pg/mL
same,conc/live cell,IL-1 alpha; [13],63.5 pg/10^5 and 66.9 pg/10^5 and 72.0 pg/10^5
same,Concentration,IL-1 alpha; [14],338.7 pg/mL
same,conc/live cell,IL-1 alpha; [14],67.5 pg/10^5
same,Concentration,IL-1 alpha; [15],356.2 pg/mL and 327.9 pg/mL and 345.8 pg/mL
same,conc/live cell,IL-1 alpha; [15],66.0 pg/10^5 and 56.5 pg/10^5 and 73.6 pg/10^5
same,Concentration,IL-1 alpha; [16],343.3 pg/mL
same,conc/live cell,IL-1 alpha; [16],65.4 pg/10^5
same,Concentration,IL-1 alpha; [17],446.4 pg/mL and 402.2 pg/mL and 436.1 pg/mL
same,conc/live cell,IL-1 alpha; [17],73.2 pg/10^5 and 65.9 pg/10^5 and 72.7 pg/10^5
same,Concentration,IL-1 alpha; [18],428.2 pg/mL
same,conc/live cell,IL-1 alpha; [18],70.6 pg/10^5
